Experimental data taken from PubChem BioAssay (NCI).
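Here, GI50 denotes the concentration required for 50% inhibition of growth. TGI: concentration producing complete growth inhibition.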

Key:
Assay in all cases: DTP human tumour cell line panel, 384-well format
NCI-H226 lung = test system: NCI-H226 lung
NCI-H322M lung = test system: NCI-H322M lung
OVCAR-4 ovarian = test system: OVCAR-4 ovarian
SK-MEL-28 melanoma = test system: SK-MEL-28 melanoma
UACC-62 melanoma = test system: UACC-62 melanoma
SR leukemia = test system: SR leukemia
IGROV1 ovarian = test system: IGROV1 ovarian
SK-OV-3 ovarian = test system: SK-OV-3 ovarian
TK-10 renal = test system: TK-10 renal
SN12C renal = test system: SN12C renal
HS 578T breast = test system: HS 578T breast
HCT-116 colon = test system: HCT-116 colon
COLO 205 colon = test system: COLO 205 colon

Molecule `NC1(c2ccc(-c3nc4ccn5c(=O)[nH]nc5c4cc3-c3ccccc3)cc2)CCC1` has a GI50 (NCI-H226 lung) of 2080 nM, a TGI (NCI-H226 lung) of 7.36 µM and a GI50 (NCI-H322M lung) of 2440 nM. For the same molecule, the TGI (NCI-H322M lung) was 10.2 µM, the GI50 (OVCAR-4 ovarian) was 2790 nM and the TGI (OVCAR-4 ovarian) was 7.48 µM. It also gave a GI50 (SK-MEL-28 melanoma) of 1200 nM, a TGI (SK-MEL-28 melanoma) of 2500 nM and a GI50 (UACC-62 melanoma) of 1450 nM. For the same molecule, the TGI (UACC-62 melanoma) was 5.45 µM, the GI50 (SR leukemia) was 1140 nM and the TGI (SR leukemia) was 2360 nM. It also gave a GI50 (IGROV1 ovarian) of 188 nM, a TGI (IGROV1 ovarian) of 2390 nM and a GI50 (SK-OV-3 ovarian) of 763 nM. For the same molecule, the TGI (SK-OV-3 ovarian) was 2300 nM, the GI50 (TK-10 renal) was 1340 nM and the TGI (TK-10 renal) was 3.9 µM. The GI50 (SN12C renal) was 4.04 µM, the TGI (SN12C renal) was 16.3 µM and the GI50 (HS 578T breast) was 704 nM. The TGI (HS 578T breast) was 2170 nM, the GI50 (HCT-116 colon) was 1520 nM and the TGI (HCT-116 colon) was 2960 nM. For the same molecule, the GI50 (COLO 205 colon) was 712 nM and the TGI (COLO 205 colon) was 2650 nM.
